Consider 22 compounds from patent US12350270B2, “Antimalarial agents” (Merck Sharp & Dohme LLC, priority 2019, dated 2025).

pEC50: −log10 of the molar value.

The subject of one assay is parasites (ring stage, in human red blood cell culture). Nature of the assay: Parasite LDH growth assay (antiparasite potency, Parasite Assay). Type of assay: cell-based, Plasmodium falciparum. Particulars: 0.7% rings, 2% haematocrit, 72 hours at 37° C., LDH readout of parasite growth. The method, boiled down:
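Ring-stage parasites at 0.7% parasitemia and 2% haematocrit, in RPMI-Hepes/bicarbonate with 5% heat-inactivated human serum and 0.5% albumax, were added to compound-containing medium. Cultures grew 72 h at 37 °C in gassed humidified boxes. Plates were then frozen overnight at −80 °C, thawed 4 h, and growth was measured by LDH assay.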
By pEC50 is commonly meant −log10 of the EC50, conventionally taken in molar units. Take `CC1(C)CC(=O)N([C@@H]2CCOc3ccc(C(=O)NC4c5ccccc5OCC4(O)C(F)(F)F)cc32)C(=N)N1` (single isomer, unassigned) [Example 234B]: the negative logarithm of the EC50 (pEC50) was 8.41.

For `CC1(C)CC(=O)N([C@@H]2CCOc3ccc(C(=O)N[C@H]4CC(C)(C)Oc5ccccc54)cc32)C(=N)N1` [Example 106, (4R)-N-[(4S)-2,2-dimethylchroman-4-yl]-4-(2-imino-4,4-dimethyl-6-oxo-hexahydropyrimidin-1-yl)chromane-6-carboxamide], the negative-log EC50 (pEC50) is 8.18.

As for `CC[C@]1(C)CC(=O)N([C@@H]2CCOc3ccc(C(=O)NC4c5c(F)cccc5OCC4(C)O)cc32)C(=N)N1` (single isomer, unassigned) [Example 193A], the pEC50 was 7.02.

`CC[C@]1(C)CC(=O)N([C@@H]2CCOc3ccc(C(=O)NC4c5cc(F)ccc5OCC4(C)O)cc32)C(=N)N1` (single isomer, unassigned) [Example 190B] had a pEC50 of 8.59.

As to `CCC1(CC)CC(=O)N([C@@H]2CCOc3ccc(C(=O)NC4c5ccccc5OC4(C)C)cc32)C(=N)N1` (single isomer, unassigned) [Example 133A], the pEC50 is 8.85.

The compound `CCC1(CC)CC(=O)N([C@@H]2CCOc3ccc(C(=O)N[C@@H]4c5ccccc5OC(C(F)(F)F)C4O)cc32)C(=N)N1` (single isomer, unassigned) [Example 32A] had a pEC50 of 8.10.

`CCC1(CC)CC(=O)N([C@@H]2CCOc3ccc(C(=O)NC4c5ccccc5OC(C)(C)C4(C)O)cc32)C(=N)N1` (single isomer, unassigned) [Example 242A]: the pEC50 is 9.22.

The compound `CCC1(CC)C[C@@H](N2C(=N)NC(C)(C)CC2=O)c2cc(C(=O)N[C@@H]3c4ccccc4OC[C@H]3O)ccc2O1` [Example 57A, (R)-2,2-diethyl-N-((3S,4R)-3-hydroxychroman-4-yl)-4-(2-imino-4,4-dimethyl-6-oxotetrahydropyrimidin-1(2H)-yl)chromane-6-carboxamide] showed a pEC50 of 7.74.

The compound `CCC1(CC)CC(=O)N(C2c3cc(C(=O)N[C@@H]4c5ccccc5OC(C)(C)[C@H]4O)ccc3CC2OC)C(=N)N1` (single isomer, unassigned) [Example 251B] showed a pEC50 of 8.82.

The same assay, now with this note: Plasmodium falciparum, Erythrocyte, 72 h, 0.7% rings, 2% haematocrit, 72 hours at 37° C., LDH readout of parasite growth.
In the case of `CC1(C)CC(=O)N(C2CC(C)(C)c3ccc(C(=O)N[C@@H]4c5ccccc5OC[C@H]4O)cc32)C(=N)N1` (stereo partly drawn) [Example 101, N-[(3S,4R)-3-hydroxychroman-4-yl]-3-(2-imino-4,4-dimethyl-6-oxo-hexahydropyrimidin-1-yl)-1,1-dimethyl-indane-5-carboxamide], the pEC50 was 7.33.

On to `CC[C@]1(C)CC(=O)N([C@@H]2C[C@@H](C)c3ccc(C(=O)N[C@@H]4c5ccccc5C[C@H]4O)cc32)C(=N)N1` [Example 88, (1R,3R)-3-[(4R)-4-ethyl-2-imino-4-methyl-6-oxo-hexahydropyrimidin-1-yl]-N-[(1R,2R)-2-hydroxyindan-1-yl]-1-methyl-indane-5-carboxamide], for which the pEC50 is 8.47.

`CCC1(CC)CC(=O)N([C@@H]2CCOc3c(C#N)cc(C(=O)N[C@H]4CC(C)(C)Oc5ccccc54)cc32)C(=N)N1` [Example 27A, (R)-8-cyano-4-(4,4-diethyl-2-imino-6-oxotetrahydropyrimidin-1yl)-N-((S)-2,2-dimethylchroman-4-yl)chromane-6-carboxamide]: the pEC50 is 8.89.

In the case of `CC[C@]1(C)CC(=O)N(C2c3cc(C(=O)N[C@@H]4c5ccccc5C[C@H]4O)ccc3OCC2(C)OC)C(=N)N1` (stereo partly drawn) [Example 180, 4-[(4R)-4-ethyl-2-imino-4-methyl-6-oxo-hexahydropyrimidin-1-yl]-N-[(1R,2R)-2-hydroxyindan-1-yl]-3-methoxy-3-methyl-chromane-6-carboxamide], the negative logarithm of the EC50 (pEC50) is 7.18.

With `CCC1(CC)CC(=O)N([C@@H]2CCS(=O)(=O)c3ccc(C(=O)N[C@@H]4c5ccccc5C[C@H]4O)cc32)C(=N)N1` [Example 222, (4R)-4-(4,4-diethyl-2-imino-6-oxo-hexahydropyrimidin-1-yl)-N-[(1R,2R)-2-hydroxyindan-1-yl]-1,1-dioxo-3,4-dihydro-2H-thiochromene-6-carboxamide], the pEC50 was 7.81.

With `CC[C@]1(C)CC(=O)N([C@@H]2CCOc3ccc(C(=O)N[C@H]4C[C@@H](COC(F)F)Oc5ccccc54)cc32)C(=N)N1` [Example 270, (4R)-N-[(2S,4S)-2-(difluoromethoxymethyl)chro-man-4-yl]-4-[(4R)-4-ethyl-2-imino-4-methyl-6-oxo-hexahydropyrimidin-1-yl]chromane-6-carboxamide], the negative-log EC50 (pEC50) was 8.74.

`CCC1(CC)CC(=O)N([C@H]2c3cc(C(=O)N[C@@H]4c5ccccc5OC[C@@]4(C)O)ccc3OC[C@@H]2COC)C(=N)N1` [Example 288, (3S,4R)-4-(4,4-diethyl-2-imino-6-oxo-hexahydropyrimidin-1-yl)-N-[(3S,4R)-3-hydroxy-3-methyl-chroman-4-yl]-3-(methoxymethyl)chromane-6-carboxamide]: the pEC50 is 8.74.

Compound `CCC1(CC)C[C@@H](N2C(=N)NC(C)(C)CC2=O)c2cc(C(=O)N[C@@H]3c4ccccc4C[C@H]3O)ccc2O1` [Example 51A, (R)-2,2-diethyl-N-((1R,2R)-2-hydroxy-2,3-dihydro-1H-inden-l-yl)-4-(2-imino-4,4-dimethyl-6-oxotetrahydropyrimidin-1(2H)-yl)chromane-6-carboxamide] gave a negative logarithm of the EC50 (pEC50) of 7.65.

Turning to `CC[C@]1(C)CC(=O)N([C@@H]2CCc3ccc(C(=O)N[C@@H]4c5ccccc5OC(C)(C)[C@H]4O)cc32)C(=N)N1` [Example 121, (3R)-3-[(4R)-4-ethyl-2-imino-4-methyl-6-oxo-hexahydropyrimidin-1-yl]-N-[(3S,4R)-3-hydroxy-2,2-dimethyl-chroman-4-yl]indane-5-carboxamide], the pEC50 is 9.22.

As to `CC1(C)CC(=O)N(C2CC(C)(C)c3ccc(C(=O)N[C@@H]4c5ccccc5C[C@@]4(C)O)cc32)C(=N)N1` (stereo partly drawn) [Example 93, N-[(1R,2R)-2-hydroxy-2-methyl-indan-1-yl]-3-(2-imino-4,4-dimethyl-6-oxo-hexahydropyrimidin-1-yl)-1,1-dimethyl-indane-5-carboxamide], the negative logarithm of the EC50 (pEC50) is 6.72.

In turn, `CC[C@]1(C)CC(=O)N([C@H]2c3cc(C(=O)N[C@@H]4c5ccccc5C[C@H]4O)ccc3OC[C@@H]2COC)C(=N)N1` [Example 174, (3S,4R)-4-[(4R)-4-ethyl-2-imino-4-methyl-6-oxo-hexahydropyrimidin-1-yl]-N-[(1R,2R)-2-hydroxyindan-1-yl]-3-(methoxymethyl)chromane-6-carboxamide] showed a pEC50 of 8.72.

Take `CC1(C)CC(=O)N([C@@H]2CCc3ccc(C(=O)N[C@@H]4c5cc(F)ccc5OC(C)(C)[C@H]4O)cc32)C(=N)N1` [Example 149, (3R)-N-[(3S,4R)-6-fluoro-3-hydroxy-2,2-dimethyl-chroman-4-yl]-3-(2-imino-4,4-dimethyl-6-oxo-hexahydropyrimidin-1-yl)indane-5-carboxamide]: the negative logarithm of the EC50 (pEC50) was 8.96.

Consider `CCC1(CC)CC(=O)N([C@H]2c3cc(C(=O)N[C@@H]4c5ccccc5OC(C)(C)[C@H]4O)ccc3CC[C@@H]2OC)C(=N)N1` [Example 276, (3S,4S)-4-(4,4-diethyl-2-imino-6-oxo-hexahydropyrimidin-1-yl)-N-[(3S,4R)-3-hydroxy-2,2-dimethyl-chroman-4-yl]-3-methoxy-tetralin-6-carboxamide], for which the negative logarithm of the EC50 (pEC50) was 9.22. This pEC50 lies 0.26 log units higher than the previous one.
